Results on eleven molecules are retold here after patent publication EP0931079B1, “SUBSTITUTED BENZOCYCLOHEPTAPYRIDINE DERIVATIVES USEFUL FOR INHIBITION OF FARNESYL PROTEIN TRANSFERASE” (SCHERING CORPORATION, priority 1996, dated 1998).

In general, IC50 refers to the concentration needed to halve the response being measured.

Assay [1] addresses T1, farnesyl protein transferase (Homo sapiens, UniProt P49354+P49356). Description: FPT IC50 (H-ras), inhibition of farnesyl protein transferase, in vitro enzyme assay. Format: biochemical. Conditions: range stated for the listed compounds as a group. The method, then:
(§1) FPT IC50 (inhibition of farnesyl protein transferase, in vitro enzyme assay) and COS Cell IC50 (Cell-Based Assay) were determined following the assay procedures described in WO 95/10516, published April 20, 1995. GGPT IC50 (inhibition of geranylgeranyl protein transferase, in vitro enzyme assay), Cell Mat Assay, and anti-tumor activity (in vivo anti-tumor studies) could be determined by the assay procedures described in WO 95/10516. The disclosure of WO 95/10516 is incorporated herein by reference thereto.

The next assay relates to Human tumor cells. Description: Soft Agar Assay (anchorage-independent growth, colony outgrowth). The format is cell-based. Conditions: colonies after 10-16 days at 37°C, range stated for the listed compounds as a group, read-out: Soft Agar FPT IC50. As to the method:
Anchorage-independent growth is a characteristic of tumorigenic cell lines. Human tumor cells are suspended in growth medium containing 0.3% agarose and an indicated concentration of a famesyl transferase inhibitor. The solution is overlayed onto growth medium solidified with 0.6% agarose containing the same concentration of farnesyl transferase inhibitor as the top layer. After the top layer is solidified, plates are incubated for 10-16 days at 37°C under 5% CO2 to allow colony outgrowth. After incubation, the colonies are stained by overlaying the agar with a solution of MTT (3-[4,5-dimethyl-thiazol-2-yl]-2,5-diphenyltetrazolium bromide, Thiazolyl blue) (1 mg/mL in PBS). Colonies can be counted and the IC50's can be determined.

Assay [2] addresses T1, farnesyl protein transferase. In words: FPT IC50 (K-ras), inhibition of farnesyl protein transferase, in vitro enzyme assay. The format is biochemical. Conditions: range stated for the listed compounds as a group. The method, then: as §1
The test system of a further assay is COS Cell. Description: COS Cell IC50 (Cell-Based Assay). Conditions: range stated for the listed compounds as a group. As to the method: as §1

Some results are limits rather than exact numbers.

As for `O=C(CN1CCC(CC(=O)N2CCC([C@H]3c4ncc(Br)cc4CCc4cc(Cl)cc(Br)c43)CC2)CC1)N[C@@H]1O[C@H](CO)[C@H](O)[C@H](O)[C@H]1O` [Compound 6.0], the IC50 in assay [1] is 1.8 to 28 nM; in the assay on Human tumor cells it was not below 60 nM; in assay [2], 8.6 to 51.9 nM; in the assay on COS Cell it was 6 to 840 nM.

For the molecule `CCN(CC)C(=O)CN1CCC(CC(=O)N2CCC([C@H]3c4ncc(Br)cc4CCc4cc(Cl)cc(Br)c43)CC2)CC1` [Compound 4.0], the IC50 in assay [1] was 1.8 to 28 nM; in the assay with Human tumor cells, not below 60 nM; in assay [2] it was 8.6 to 51.9 nM; in the assay on COS Cell, 6 to 840 nM.

Take `NC(=O)CN1CCC(CC(=O)N2CCC([C@H]3c4ncc(Br)cc4CCc4cc(Cl)cc(Br)c43)CC2)CC1` [Compound 2.0]: the half-maximal inhibitory concentration (IC50) is 1.8 to 28 nM in assay [1], not below 60 nM in the assay on Human tumor cells, 8.6 to 51.9 nM in assay [2] and 6 to 840 nM with COS Cell.

In the case of `O=C(CC1CCN(CC(O)CO)CC1)N1CCC([C@H]2c3ncc(Br)cc3CCc3cc(Cl)cc(Br)c32)CC1` (stereo partly shown) [Compound 20.0], the IC50 was 1.8 to 28 nM in assay [1], not below 60 nM with Human tumor cells and 6 to 840 nM in the assay with COS Cell.

As for `O=C(CN1CCC(CC(=O)N2CCC([C@H]3c4ncc(Br)cc4CCc4cc(Cl)cc(Br)c43)CC2)CC1)NCc1ccccc1` [Compound 5.0], the values for the concentration for half-maximal inhibition (IC50) (in assay [1]; in assay [2]; in the assay on COS Cell) were 1.8 to 28 nM, 8.6 to 51.9 nM and 6 to 840 nM, respectively.

With `O=C(CC1CCN(CC(=O)N2CCc3ccccc32)CC1)N1CCC([C@H]2c3ncc(Br)cc3CCc3cc(Cl)cc(Br)c32)CC1` [Compound 10.0], the IC50 in assay [1] fell in the range of 1.8 to 28 nM; in the assay with COS Cell it was 6 to 840 nM.

In the case of `O=C(CC1CCN(CC(=O)N2CCOCC2)CC1)N1CCC([C@H]2c3ncc(Br)cc3CCc3cc(Cl)cc(Br)c32)CC1` [Compound 7.0], the half-maximal inhibitory concentration (IC50) in assay [1] is 1.8 to 28 nM; in the assay with Human tumor cells it was not below 60 nM; in assay [2], 8.6 to 51.9 nM; in the assay on COS Cell, 6 to 840 nM.

Consider `CC(C)(C)OC(=O)CN1CCC(CC(=O)N2CCC([C@H]3c4ncc(Br)cc4CCc4cc(Cl)cc(Br)c43)CC2)CC1` [Compound 11.0], for which the IC50 in assay [1] was 1.8 to 28 nM.

`O=C(CC1CCN(CC(=O)N2CCNCC2)CC1)N1CCC([C@H]2c3ncc(Br)cc3CCc3cc(Cl)cc(Br)c32)CC1` [Compound 9.0]: the IC50 is 1.8 to 28 nM in assay [1], not below 60 nM with Human tumor cells, 8.6 to 51.9 nM in assay [2] and 6 to 840 nM with COS Cell.

Turning to `CON(C)C(=O)CN1CCC(CC(=O)N2CCC([C@H]3c4ncc(Br)cc4CCc4cc(Cl)cc(Br)c43)CC2)CC1` [Compound 3.0], the half-maximal inhibitory concentration (IC50) is 1.8 to 28 nM in assay [1], not below 60 nM in the assay with Human tumor cells, 8.6 to 51.9 nM in assay [2] and 6 to 840 nM in the assay with COS Cell.

In the case of `CC(C)(C)OC(=O)N1CCN(C(=O)CN2CCC(CC(=O)N3CCC([C@H]4c5ncc(Br)cc5CCc5cc(Cl)cc(Br)c54)CC3)CC2)CC1` [Compound 8.0], the IC50 was 1.8 to 28 nM in assay [1], not below 60 nM in the assay with Human tumor cells, 8.6 to 51.9 nM in assay [2] and 6 to 840 nM in the assay with COS Cell.
